Patent US20030180349A1, “Respiratory infection prevention and treatment with terpene-containing compositions” (priority 2001, published 2003)

Legend:
[1] = Solution levels of terpenes in water (no surfactant, high-shear blending); format: physicochemical; conditions: for Solution levels for various terpenes: Level: maximum level solubilized in water without surfactant
[2] = test system: erythrocytes; format: cell-based, Human
Procedure: These mixtures were incubated for 20 minutes.

[3] = test system: Mycoplasma iowae; experiment: Effect of citral on growth of Mycoplasma iowae (color changing units); format: cell-based
Procedure: M. iowae is a known avian respiratory disease agent. […] Mycoplasma iowae were incubated at 37° C. in R2 (Chen, T. A., J. M. Wells, and C. H. Liao. 1982. Cultivation in vitro: spiroplasmas, plant mycoplasmas, and other fastidious, walled prokaryotes. pp. 417-446. in Phytopathogenic prokaryotes, V. 2, M. S. Mount and G. H. Lacy (ed.), Academic Press, New York) broth. One to 2-day old cultures were observed under a dark-field microscope to ensure cells were in filamentous form before treatment. Cell suspensions were vortexed to ensure they were evenly mixed before and an aliquot of 0.5 mL was dispensed into a sterile tube. […] The treated cell suspension was incubated for 24 hrs before the color changing units (CCUs) were determined by a 10-fold serial dilution in fresh R2. All treatments were duplicated. […] All culture tubes were incubated for 15 days before final readings were taken. A comparison was made of the effect of 24-hr and 48-hr treatment times. The CCUs were determined by taking treated cell suspension from the same treated tube 24 hrs or 48 hrs after treatment.

[4] = Break down / loss of potency of terpenes in the presence of oxygen; format: physicochemical; conditions: 500 ppm solution
Description: Terpenes will break down in the presence of oxygen. Citral, for example, is an aldehyde and will decay (oxygenate) over a period of days.

[5] = test system: E. coli; conditions: cited from earlier work
[6] = test system: H. pylori; conditions: cited from earlier work
[7] = test system: Mycoplasma pneumoniae; experiment: In vitro effectiveness against Mycoplasma pneumoniae (color change); format: cell-based; conditions: 40 hours treatment
Procedure: Terpene beta-ionone or L-carvone was first mixed well with Tween® 80 to have a final Tween® 80 concentration of 5%. This mixture was then used to make concentrations of 2500 ppm in sterile phosphate buffer saline (PBS) by blending the mixture in PBS for 40 seconds. This 2500 ppm solution was then diluted to 500 ppm, 250 ppm, and 125 ppm with PBS.
PBS containing 25 ppm Tween® 80 or PBS alone was used to treat cells suspension as controls.
A log phase (2-3-day old) culture of Mycoplasma pneumoniae was mixed with each of the above three concentrations of terpene at 1:1 (volume) ratio (in this case, 1 mL of cell suspension was added to 1 mL of terpene).
The culture and terpene mixture was then incubated at 37° C. for 40 hours. After 40 hours of treatment, 10-fold serial dilution was performed to 10 (−10) by first taking 0.1 mL of the treated culture suspension was added into 0.9 mL of fresh SP4 (Whitcomb (1983); SP4 media is commercially available (Remel, Lenexa, Kans., USA)). All the tubes were then incubated at 37° C., and a color change of the medium was used for the indication of the cells that either were killed or survived from the treatment. Color change was from red to yellow because Mycoplasma pneumoniae produces acid during its growth.

[8] = 62.5 ppm (5% Tween 80, PBS), three days after 10-fold dilution
[9] = 62.5 ppm, 6 days after 10-fold dilution
[10] = 125 ppm (5% Tween 80, PBS), three days after 10-fold dilution
[11] = 125 ppm, 6 days after 10-fold dilution
[12] = 250 ppm (5% Tween 80, PBS), three days after 10-fold dilution
[13] = 250 ppm, 6 days after 10-fold dilution

Compound | Solution levels for various terpenes: Level [1] [ppm] | color change of medium / killing effect [7, 8] | color change of medium / killing effect [7, 9] | color change of medium / killing effect [7, 10] | color change of medium / killing effect [7, 11] | color change of medium / killing effect [7, 12] | color change of medium / killing effect [7, 13] | Concentration at which erythrocytes lyse [2] [ppm] | further results
C=C(C)C1CC=C(C)C(=O)C1 (stereo not drawn) [Carvone] | 500 |  |  |  |  |  |  |  | 
CC(C)=CCCC(C)=CC=O [Citral, 3,7-dimethyl-2,6-octadien-1-al] |  |  |  |  |  |  |  |  | concentration that will lyse human erythrocytes ([2]; human, 20 min): about 1000 ppm; color changing units after treatment ([3]; 62.5 ppm, 24 hr (Table 4)): 10^6 CCUs; color changing units after treatment ([3]; 62.5 ppm, 24 hrs (Table 3)): 10^8 CCUs; color changing units after treatment ([3]; 62.5 ppm, 48 hr (Table 4)): 10^6 CCUs; color changing units after treatment ([3]; 125 ppm, 24 hr (Table 4)): 10^7 CCUs; color changing units after treatment ([3]; 125 ppm, 24 hrs (Table 3)): 10^8 CCUs; color changing units after treatment ([3]; 125 ppm, 48 hr (Table 4)): 10^6 CCUs; color changing units after treatment ([3]; 250 ppm, 24 hr (Table 4)): 10^5 CCUs; color changing units after treatment ([3]; 250 ppm, 24 hrs (Table 3)): 10^7 CCUs; color changing units after treatment ([3]; 250 ppm, 48 hr (Table 4)): 10^4 CCUs; stable suspension can be formed up to ([1]; suspension): about 2500 ppm; time in which solution loses half its potency [4]: 2-3 weeks; citral concentration with bactericidal effect [5]: 0.08%; citral in growth media that reduced the concentration of E. coli [5]: more than 0.01%
CC(C)=CCC/C(C)=C/CO [Geraniol] | 500 |  |  |  |  |  |  |  | concentration that inhibited the growth of H. pylori in vitro [6]: 2 mg/L
CC(=O)/C=C/C1=C(C)CCCC1(C)C [b-ionone] | 500 | did not change color at all | only the first tube | did not change color at all | may have completely killed all cells | did not change color at all | may have completely killed all cells | 2000 | 
L-carvone |  | no killing effects | second and third tube | no killing effects | second and third tube | no killing effects | second and third tube | 250 | 
Terpeniol | 500 |  |  |  |  |  |  |  | 
